The nature of test [1]: HEp-2 cell cytotoxicity, dose response, cytotoxicity control for RSV inhibitor project, HTS (AID 2410). It counts as functional. The settings on record: human respiratory syncytial virus.
A further test concerns the target T1, Cytochrome P450 1A2 (Homo sapiens, UniProt P05177).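 Further: PubChem cytochrome P450 panel assay, CYP1A2 panel member.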
T1 sequence (P05177 whole entry): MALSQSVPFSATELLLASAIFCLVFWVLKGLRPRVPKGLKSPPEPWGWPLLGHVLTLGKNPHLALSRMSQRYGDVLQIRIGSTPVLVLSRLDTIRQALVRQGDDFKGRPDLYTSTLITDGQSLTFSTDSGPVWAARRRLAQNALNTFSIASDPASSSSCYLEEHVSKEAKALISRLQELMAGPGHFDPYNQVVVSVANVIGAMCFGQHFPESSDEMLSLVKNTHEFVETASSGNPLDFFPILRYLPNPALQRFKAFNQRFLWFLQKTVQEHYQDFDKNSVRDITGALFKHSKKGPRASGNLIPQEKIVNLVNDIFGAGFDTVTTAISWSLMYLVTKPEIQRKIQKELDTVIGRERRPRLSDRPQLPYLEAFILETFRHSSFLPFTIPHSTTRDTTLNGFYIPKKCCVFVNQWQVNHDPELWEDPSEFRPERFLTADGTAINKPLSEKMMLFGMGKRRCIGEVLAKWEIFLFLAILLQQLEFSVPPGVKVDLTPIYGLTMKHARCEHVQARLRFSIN

A further test has as its target Cytochrome P450 2D6 (Homo sapiens, UniProt P10635).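 Further: CYP2D6 member of a cytochrome P450 panel assay.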
The next test is described as follows: cells. It counts as functional.
In test [2] the target is T2, Corticotropin-releasing factor receptor 2/Corticotropin-releasing factor-binding protein (Homo sapiens, UniProt P24387+Q13324).
T2 sequence (Q13324 whole entry): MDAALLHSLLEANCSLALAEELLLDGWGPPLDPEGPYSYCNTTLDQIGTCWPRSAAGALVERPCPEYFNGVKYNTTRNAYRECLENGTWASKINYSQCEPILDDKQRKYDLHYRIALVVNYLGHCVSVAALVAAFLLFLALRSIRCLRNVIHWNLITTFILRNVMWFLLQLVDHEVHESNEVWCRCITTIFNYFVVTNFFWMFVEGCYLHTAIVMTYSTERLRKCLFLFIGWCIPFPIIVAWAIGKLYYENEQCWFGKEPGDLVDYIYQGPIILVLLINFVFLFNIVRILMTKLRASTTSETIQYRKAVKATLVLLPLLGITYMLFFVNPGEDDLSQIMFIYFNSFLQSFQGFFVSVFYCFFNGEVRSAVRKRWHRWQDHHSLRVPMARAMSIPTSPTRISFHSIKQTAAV
T2 sequence (P24387 whole entry): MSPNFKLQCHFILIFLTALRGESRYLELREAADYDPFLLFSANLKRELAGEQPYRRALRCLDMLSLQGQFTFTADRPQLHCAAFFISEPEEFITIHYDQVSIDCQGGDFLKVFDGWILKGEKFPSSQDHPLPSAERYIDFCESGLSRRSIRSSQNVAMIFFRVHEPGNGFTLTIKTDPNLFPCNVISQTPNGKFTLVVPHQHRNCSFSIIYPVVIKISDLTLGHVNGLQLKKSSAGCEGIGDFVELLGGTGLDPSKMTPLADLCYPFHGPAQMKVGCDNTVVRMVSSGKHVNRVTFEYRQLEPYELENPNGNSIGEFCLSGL
Description: activators of CRF receptor 2 with binding protein – uHTS hits, confirmation (AID 602473). The class given is functional. As to conditions: read-out: EC50_Mean.

Test [3] addresses T3, Heat shock factor protein 1 (Mus musculus, UniProt P38532).
T3 sequence (P38532 whole entry): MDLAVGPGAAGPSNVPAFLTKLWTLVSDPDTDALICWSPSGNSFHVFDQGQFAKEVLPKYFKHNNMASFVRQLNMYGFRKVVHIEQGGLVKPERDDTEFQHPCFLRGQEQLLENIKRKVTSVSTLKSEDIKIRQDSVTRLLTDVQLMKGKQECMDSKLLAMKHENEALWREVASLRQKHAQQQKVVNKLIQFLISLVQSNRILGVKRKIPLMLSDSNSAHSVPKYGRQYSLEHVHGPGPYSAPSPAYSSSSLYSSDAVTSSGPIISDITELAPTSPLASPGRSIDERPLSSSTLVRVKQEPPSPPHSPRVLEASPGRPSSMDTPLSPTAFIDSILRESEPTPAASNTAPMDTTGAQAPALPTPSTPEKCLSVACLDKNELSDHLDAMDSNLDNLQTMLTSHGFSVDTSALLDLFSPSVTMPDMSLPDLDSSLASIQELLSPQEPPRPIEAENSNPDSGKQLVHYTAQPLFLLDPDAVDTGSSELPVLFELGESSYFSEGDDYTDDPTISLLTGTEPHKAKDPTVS
Description: inhibition of MG132-induced HSE-luciferase signal, confirmation, cell-based, NIH3T3, luminescence, dose retest (AID 2382).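 Further: NIH3T3 fibroblasts with HSF1-driven luciferase reporter stressed by proteasome inhibitor MG132; luminescence from HSF1-driven luciferase expression after 8 hours of MG132 stress.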 The class given is functional.

In a further test the target is Cytochrome P450 2C19 (Homo sapiens, UniProt P33261). Description: Cytochrome panel assay with activity outcomes. Panel member name: p450-cyp2c19 Compounds with AC50 equal or less than 10 uM are considered active. It counts as functional. As to conditions: read-out: AC50.

Active and inactive are the calls of the source.

Sequence of Cytochrome P450 2D6 (P10635 whole entry): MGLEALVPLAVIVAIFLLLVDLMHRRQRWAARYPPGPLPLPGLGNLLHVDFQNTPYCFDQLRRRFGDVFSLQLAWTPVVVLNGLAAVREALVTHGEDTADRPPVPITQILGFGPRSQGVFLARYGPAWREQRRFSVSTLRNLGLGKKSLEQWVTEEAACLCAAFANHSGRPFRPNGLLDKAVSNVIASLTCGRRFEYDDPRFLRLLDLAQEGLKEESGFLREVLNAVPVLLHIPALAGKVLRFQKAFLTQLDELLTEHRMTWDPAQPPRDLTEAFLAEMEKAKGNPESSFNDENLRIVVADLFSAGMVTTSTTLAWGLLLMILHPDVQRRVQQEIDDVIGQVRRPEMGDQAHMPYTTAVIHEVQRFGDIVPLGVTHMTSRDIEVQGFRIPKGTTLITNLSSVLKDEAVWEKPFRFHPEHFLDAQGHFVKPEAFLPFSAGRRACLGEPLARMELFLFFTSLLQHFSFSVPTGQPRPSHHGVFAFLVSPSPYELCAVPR
Sequence of Cytochrome P450 2C19 (P33261 whole entry): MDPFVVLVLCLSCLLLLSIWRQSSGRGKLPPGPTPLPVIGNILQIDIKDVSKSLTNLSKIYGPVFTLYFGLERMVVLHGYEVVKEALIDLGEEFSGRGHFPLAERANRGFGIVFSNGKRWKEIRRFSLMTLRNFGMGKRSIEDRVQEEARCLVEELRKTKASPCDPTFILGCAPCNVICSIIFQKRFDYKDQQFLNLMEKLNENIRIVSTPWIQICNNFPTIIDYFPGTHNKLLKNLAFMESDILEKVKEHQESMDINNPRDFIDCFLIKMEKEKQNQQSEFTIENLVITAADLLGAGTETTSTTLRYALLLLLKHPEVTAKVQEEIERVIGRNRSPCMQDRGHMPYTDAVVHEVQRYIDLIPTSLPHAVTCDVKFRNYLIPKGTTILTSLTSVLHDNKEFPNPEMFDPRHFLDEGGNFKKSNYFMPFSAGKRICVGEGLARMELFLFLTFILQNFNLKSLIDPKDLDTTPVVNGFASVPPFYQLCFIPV

As a reminder, the CC50 is the concentration giving 50% cytotoxicity. Take `Cc1nc(NC(=O)CSc2cc(C)c3ccccc3n2)c(Cl)cc1Cl`: the 50% cytotoxic concentration (CC50) in test [1] was > 50 µM (active).

Usually AC50 stands for the midpoint of the concentration-response curve, whichever way the signal moves. In the case of `CCCCC(=O)NC(Nc1cc(C)ccn1)(C(=O)OCC)C(F)(F)F` (centres undefined), the half-maximal activity concentration (AC50) on Cytochrome P450 1A2 was 15.8 µM (inconclusive). Turning to `COc1cccc(-c2nc(Nc3ccncc3)c3ccccc3n2)c1`, the half-maximal activity concentration (AC50) at Cytochrome P450 2D6 was 25.1 µM (inconclusive). Consider `CCN(CC)C(=O)CSc1nc2ccc(NC(=O)CSc3nnc(COc4ccccc4C)n3C)cc2s1`, for which the half-maximal activity concentration (AC50) at Cytochrome P450 2D6 was 14.1 µM (inconclusive). Regarding `COc1ccc(CCNC(=O)c2ccccc2NC(=O)c2ccco2)cc1OC`, the concentration at half-maximal activity (AC50) on Cytochrome P450 1A2 is 22.4 µM (inconclusive). Take `N#Cc1ccc(OCC(=O)Nc2ccncc2)cc1`: in test [1], the half-maximal cytotoxic concentration (CC50) was 14.7 µM (active). `CCN(CC)C[C@@H](O)CN1CCCCc2nc(C)c(C)cc21`: the half-maximal activity concentration (AC50) at Cytochrome P450 2D6 is 2.51 µM (inconclusive). Consider `Cc1ccc(C)c(S(=O)(=O)N2CCC(c3nc(O)c4nnn(Cc5ccc(F)cc5)c4n3)CC2)c1`, for which the half-maximal activity concentration (AC50) at Cytochrome P450 2D6 was 14.1 µM (inconclusive). One may read the IC50 as the concentration needed to halve the response being measured. Take `Brc1c(CSc2nncc3ccccc23)nc2ccccn12`: the half-maximal inhibitory concentration (IC50) in the test “cells” is 5.43 µM (active).

Regarding `O=c1c(-c2cc(F)cc(F)c2)nc2cnc(N3CCOCC3)nc2n1C[C@H]1CCCO1`, the AC50 on Cytochrome P450 1A2 was 2.51 µM (inconclusive). `CN(C)c1ccc(/C=C/C(=O)c2ccc(O)cc2)cc1`: the EC50 in test [2] was 5.34 µM (active). Turning to `COc1cccc(-c2ccc3ncnc(N4CCOCC4)c3c2)c1`, the AC50 on Cytochrome P450 2D6 is 31.6 µM (inconclusive). In the case of `O=C(Nc1ccc(F)cc1F)c1cc2ccccc2oc1=O`, the 50% inhibitory concentration (IC50) in “cells” was 39.7 µM (active).

For `Cc1cc(C)c(NC(=O)CSc2nncn2-c2cccnc2)c(C)c1`, the EC50 in test [3] is recorded as > 195 µM (not active). On to `CN1Cc2sc(NC(=S)NC(=O)c3ccccc3)c(C#N)c2CC1(C)C`, for which, in test [3], the EC50 was 13.9 µM (active).

With `CN(C)C(=O)c1ccc(-c2cc(NCc3ccccc3)ncn2)cc1`, the concentration at half-maximal activity (AC50) was 39.8 µM (inconclusive) at Cytochrome P450 2D6 and 12.6 µM (inconclusive) at Cytochrome P450 1A2. `NC(=O)COC(=O)c1sc2ccccc2c1Cl`: in “cells”, the half-inhibitory concentration (IC50) is 37.6 µM (active). Turning to `O=C(CN1CCN(C(c2ccccc2)c2ccccc2)CC1)N1CCOCC1`, the EC50 in test [3] was > 195 µM (not active). The same measure, in the same setting: in the case of `CCOC(=O)Cc1csc(NC(=O)Nc2cccs2)n1` it was > 195 µM (not active).

Consider `CCCc1cc2c(n1CCc1ccc(Cl)cc1)C(C)C1CN(C(=O)c3ccccc3)C(C)(C(=O)OC)C21` (centres undefined), for which, at Cytochrome P450 1A2, the concentration at half-maximal activity (AC50) is 25.1 µM (inconclusive). Take `Cc1ccc(OCC(=O)Nn2cnc3ccccc32)cc1`: at Cytochrome P450 2D6, the half-maximal activity concentration (AC50) was 10 µM (inconclusive). As to `COc1ccc(-c2[nH]ncc2CN2CCCCCCC2)c(OC)c1`, the IC50 in the test “cells” is 18.5 µM (active). Turning to `Cc1cccc(CNc2ncncc2-c2cccc(C#N)c2)c1`, at Cytochrome P450 2D6, the AC50 is 31.6 µM (inconclusive). As for `COc1ccc(OCCN2C(=O)c3ccccc3C2=O)cc1`, the EC50 in test [3] was > 195 µM (not active).

Consider `CCNc1oc(-c2cccc3ccccc23)nc1C#N`, for which the CC50 in test [1] was > 50 µM (active). Take `CCC(=O)Nc1nnc(SCC(=O)c2ccc3c(c2)Cc2ccccc2-3)s1`: the CC50 in test [1] was 42 µM (active).

With `O=C(O)CCNS(=O)(=O)c1ccccc1C(F)(F)F`, the EC50 in test [3] is > 195 µM (not active).

With `COc1ccc(Cl)cc1S(=O)(=O)N1CCC(C(=O)NCCc2ccccc2)CC1`, the EC50 in test [3] is reported as > 195 µM (not active). Consider `Cc1ccc(S(=O)(=O)N(C)CC(=O)NCCCc2ccccc2)cc1`, for which, in test [2], the EC50 is > 53 µM (inactive). With `COc1ccccc1C(=O)N/C(=C/c1ccc(Br)cc1)C(=O)NCC(=O)O`, the AC50 on Cytochrome P450 1A2 is 12.6 µM (inconclusive). As for `COC(=O)[C@@]1(Cc2ccc(OC)cc2)[C@H]2c3cc(C(=O)N(C)C)n(Cc4ccc(C)c(F)c4F)c3C[C@H]2CN1C(=O)c1ccccc1`, the AC50 at Cytochrome P450 2D6 is 12.6 µM (inconclusive). In the case of `COc1ccc(CCNc2cc(-c3ccccc3)nc3ncnn23)cc1`, the IC50 in the test “cells” was 2.48 µM (active). For `Cn1c(COc2nnc(-c3ccc(Cl)cc3)c3ccccc23)nc2ccccc21`, the AC50 on Cytochrome P450 2C19 and on Cytochrome P450 1A2 was 14.1 µM (inconclusive) throughout. Regarding `Cn1c2c(c3ccccc31)CC/C2=N\O`, in test [1], the CC50 is 38.5 µM (active). For `O=C(N/N=C/c1ccc(Br)s1)c1ccncc1`, in “cells”, the IC50 was < 0.1 µM (active). On to `O=C(Cc1ccc(Cl)c(Cl)c1)OCCN1CCCC1`, for which, on Cytochrome P450 2D6, the concentration at half-maximal activity (AC50) is 31.6 µM (inconclusive). Take `CS(=O)(=O)Nc1cccc(-c2cncnc2Nc2ccccc2)c1`: the AC50 at Cytochrome P450 2D6 is 25.1 µM (inconclusive). For the compound `CCOc1ccc2[nH]c3ccc4nonc4c3c2c1`, the 50% cytotoxic concentration (CC50) in test [1] was > 50 µM (active).

As for `Cc1cccc(CS(=O)(=O)Cc2ccc(C(=O)NCc3cccs3)o2)c1`, in test [3], the EC50 is given as > 195 µM (not active). On to `COC(=O)[C@@]1(Cc2ccc(F)cc2)[C@H]2c3cc(C(=O)N(C)C)n(CC4CC4)c3C[C@H]2CN1C(=O)c1ccccc1`, for which the AC50 on Cytochrome P450 1A2 is 25.1 µM (inconclusive). `CCn1c(-c2ccc(-c3ccccc3)cc2)cnc1S`: the cytotoxic concentration (CC50) in test [1] is 18.9 µM (active).

Turning to `CC(C)NCC[C@@H](O)c1cc2ccccc2o1`, the concentration at half-maximal activity (AC50) on Cytochrome P450 2D6 is 3.16 µM (inconclusive).

Turning to `COc1ccc(-c2c(C)c3ccc(O)cc3oc2=O)cc1`, the half-maximal cytotoxic concentration (CC50) in test [1] was 20.9 µM (active). Consider `N#Cc1nc(-c2ccco2)oc1N1CCN(c2cccc(Cl)c2)CC1`, for which the CC50 in test [1] is 31.8 µM (active).

Consider `OC(CNCCc1ccc(Cl)cc1)COc1cc(Cl)ccc1Cl` (centres undefined), for which the CC50 in test [1] was 15.6 µM (active). `CC(C)NC(=O)N(O)C1N(Cc2ccc3c(c2)OCO3)C(=S)SC1(C)C` (centres undefined): in test [3], the EC50 is on record as > 195 µM (not active). As to `Cc1cc(N2CCN(c3ccc(F)cc3)CC2)nc2cc(O)ccc12`, the EC50 in test [3] was > 195 µM (not active). For `OC(COc1ccccc1Cl)CN1CCN(CC(O)COc2ccccc2Cl)CC1` (centres undefined), the IC50 in “cells” was 17.3 µM (active). In the case of `CN1CC(c2ccccn2)C2(SC(=S)N(Cc3ccccc3)C2=O)C12C(=O)Nc1ccccc12` (centres undefined), the half-maximal activity concentration (AC50) on Cytochrome P450 2D6 is 28.2 µM (inconclusive). Consider `CCCCOc1ccc(S(=O)(=O)NNC(=O)C2Cc3c(ccc4ccccc34)O2)cc1` (centres undefined), for which the CC50 in test [1] was 27.1 µM (active). Regarding `O=C(C1CCCN(c2ncnc3c2nc2n3CCCCC2)C1)N1CCN(c2cccc(Cl)c2)CC1` (centres undefined), the 50% cytotoxic concentration (CC50) in test [1] is 11.7 µM (active). Regarding `CCOC(=O)c1nc(O)c2c3c(sc2n1)CC(C)CC3` (centres undefined), in the test “cells”, the IC50 is 4.55 µM (active). For `Cc1ccc(C(=O)NN2CCOCC2)cc1`, the concentration at half-maximal activity (AC50) on Cytochrome P450 2D6 was 0.224 µM (inconclusive). Turning to `O=C(NC(C(=O)N/N=C/c1ccccc1)c1nnc(O)c2ccccc12)c1ccccc1` (centres undefined), the EC50 in test [2] was 5.14 µM (active).

For the compound `CCc1ccc(C(=O)COC(=O)CNC(=O)c2cccs2)cc1`, the EC50 in test [3] is listed as > 195 µM (not active). For `CCCS(=O)(=O)N1CCCC(C(=O)NCc2cccnc2)C1` (centres undefined), the AC50 on Cytochrome P450 2C19 is 15.8 µM (inconclusive); at Cytochrome P450 1A2, 0.00631 µM (inconclusive).
